Experimental data taken from US20250161310A1, “PHARMACEUTICAL COMBINATIONS FOR USE IN THE TREATMENT OF NEOPLASTIC DISEASES” (priority 2022, published 2025).
Where two headings read alike, the source gives them in different places. Marks after values point to notes of the source that are not given here.

Key:
[1] = system: patient-derived tumor xenografts, including TNBC and hepatocellular cancer (HCC) models; test: monotherapy activity against patient-derived tumor xenografts in mice; format: in vivo; conditions: data not shown
Source text: (§1) In cellular systems, the compound of formula (I) has high potency against sensitive cells.

biotinylated PLK1 = biological target: T1, biotinylated PLK1 (Homo sapiens, UniProt P53350); test: target residence time assay (Biacore T200 surface plasmon resonance), PLK1; format: binding; conditions: SPR, 22° C.
T1 construct: biotin (biotinylated)
Protocol: (§2) The affinity, i.e. the equilibrium dissociation constant (KD) (referred to as residence times), of the compound of formula (I) against TTK and PLK1 were determined using a Biacore T200™ surface plasmon resonance instrument using recombinant expressed TTK kinase domain (amino acids 519-808) or biotinylated PLK1. The immobilization of TTK was performed as described in Maia et al. Annals of Oncology, 2015; 26:2180-2192. The immobilization of biotinylated PLK1 was performed as described in Willemsen-Seegers et al. Journal of Molecular Biology, 2017; 429:574-586. The subsequent single cycle kinetic assays were performed at 22° C. using a compound concentration gradient of […], 10, 31.6 and 100 nM for TTK and 10, 31.6, 100, 316 and 1000 nM for PLK1, a contact time of 100 s and a flow rate of […]. The dissociation period was 1200-1800 s and a correction for an unstable surface using a blank run with buffer was performed.

SKOV-3 s.c. xenografts = format: in vivo; conditions: day 23
Protocol: The anti-tumor activity of the compound of formula (I) in combination with carboplatin was evaluated in an ovarian cancer model, using human SKOV-3 cells grown as a solid tumor xenograft subcutaneously (s.c.) in nude mice.
The maximum tolerated dose (MTD) of the compound of formula (I) in combination with an optimal dose of carboplatin was defined in non-tumor bearing BALB/c nude mice in the experiments described above. […] Thus, in this study, using a human ovarian cell line derived xenograft (CDX) model, that schedule was applied and compared directly with the same order of administration with a 1 hr or 24 hr gap between compounds. In addition, the twice-weekly schedule was compared with a weekly schedule of 7 mg/kg BAL0891 (a weekly dose well below the MTD for compound of formula (I) monotherapy) using a 4 hr gap. Treatments continued until day 24 and tumor volumes and body weight were monitored until day 51.

[2] = system: 18 different triple negative breast cancer cell lines; test: 5-day anti-proliferative screen of 18 triple negative breast cancer cell lines; format: cell-based; conditions: 120 h; 5-day screen, 18 TNBC cell lines; read-out: median GI50
Source text: as §1

BR1282 TNBC PDX tumor [3] = test: first PDX combination study (carboplatin first), BR1282
Protocol: In a first PDX study, female BALB/c nude mice (CrownBio) of at least 20 g body weight were subcutaneously (s.c.) inoculated in the right flank with tumor fragments (3*3*3 mm) from stock mice bearing the patient-derived xenograft (PDX) triple negative breast cancer (TNBC) tumor, BR1282. Randomization into 5 different treatment groups (8 mice per group) was made when the mean tumor size was 150-200 mm^3. Mice were dosed intravenously (i.v.) twice weekly (2qw) with the compound of formula (I) (7 mg/kg, i.v., 5 mL/kg) or once weekly (qw) carboplatin (60 mg/kg, i.v., 10 mL/kg) or the combination of these doses, in which the compound of formula (I) was administered after carboplatin using either a 4 h or a 24 h gap, when both compounds were administered on the same day/consecutive days. The fifth group received both vehicles using the time interval of 4 h and all groups were dosed twice via the tail vein. Dosing was delayed by 1 day in any mice showing transient body weight loss of >10% at any time point.
(§3) Carboplatin was purchased from Qilu Pharmaceutical Co. Ltd. as a solution (10 mg/mL in 5% (w/v) glucose in pure water). The compound of formula (I) was supplied as a powder by Basilea Pharmaceutica International Ltd. and was prepared freshly as a solution in Ethanol:PEG400:Citric acid 20 mM, at a ratio of 1:1:8 and at a final pH of 3.7, for immediate administration.
(§4) Body weights and tumor volumes were determined at least twice per week, the latter by measuring two dimensions with calipers and applying the formula “V=(L×W^2)/2”, where V is the tumor volume, and L and W are the tumor length and width re-spectively. […] Mice were also culled if the BWL was determined to be >15% for 3 consecutive days. Any mice with >10% BWL, automatically were dosed on one of the following days, as soon as the BWL returned to <10%. All animal protocols were reviewed and approved by the relevant local committees in China, where the studies were performed.
(§5) The statistical significance of efficacy were determined in two different ways using a) the endpoint on day 10 or day 14 depending on the study when it was necessary to cull the vehicle group because of tumor volume exceeding 1500 mm^3, and b) at the endpoint of day 31 in the first study when exponential curve fits were applied to estimate the rates of tumor growth in the different groups. The degree of an effect was quantified by the delta (A) treated/control ratio (ΔT/C) and the statistical significance of the effect was determined by a one-way analysis of variance (1W-ANOVA) with Holms-Sidak applied post-hoc for multiple determinations, where a p-value of <0.05 was considered statistically significant. In addition, an assessment of the combination effect was made based upon the Clarkes Combination Index (CCI), where the CCI=ΔT/CAB−(ΔT/CA*ΔT/CB) in which A and B are two different compounds and AB the combination thereof, where CCI<−0.1 indicates synergy (or a positive interaction), +0.1 (antagonism, or a negative interaction) and between −0.1 and +0.1 indicates additivity (no interaction); see O'Reilly et al. Anti Cancer Drugs 2011; 22:58-78.

[4] = biological target: T2, TTK kinase domain (amino acids 519-808) (Homo sapiens, UniProt P33981); test: target residence time assay (Biacore T200 surface plasmon resonance), TTK; format: binding; conditions: SPR, 22° C.
T2 construct: recombinant expressed TTK kinase domain (amino acids 519-808)
T2 sequence (P33981 519-808): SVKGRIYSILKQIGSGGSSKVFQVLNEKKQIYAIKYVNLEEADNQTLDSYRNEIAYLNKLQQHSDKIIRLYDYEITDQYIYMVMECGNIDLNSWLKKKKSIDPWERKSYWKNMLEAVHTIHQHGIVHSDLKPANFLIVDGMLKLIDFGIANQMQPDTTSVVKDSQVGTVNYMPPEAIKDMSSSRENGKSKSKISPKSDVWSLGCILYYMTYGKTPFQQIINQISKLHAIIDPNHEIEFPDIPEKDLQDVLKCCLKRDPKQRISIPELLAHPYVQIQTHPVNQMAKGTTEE
Protocol: as §2

[5] = maximum tolerated dose in combination with carboplatin in non-tumor-bearing mice; format: in vivo
Source text: Carboplatin is standard of care treatment in a number of tumor indications. To determine the combination effect of the compound of formula (I) and carboplatin, the maximum tolerated dose (MTD) of the compound of formula (I) in combination with an optimal dose of carboplatin was first defined in non-tumor-bearing BALB/c nude mice. […]

tumor-derived TTK = biological target: T3, tumor-derived TTK (Homo sapiens, UniProt P33981); test: tumor TTK target occupancy in MDA-MB-231 xenograft-bearing mice; format: in vivo; conditions: MDA-MB-231 tumors
T3 construct: from tissue; host or cells: MDA-MB-231 xenograft tumours grown in mice
T3 sequence (P33981 1-857): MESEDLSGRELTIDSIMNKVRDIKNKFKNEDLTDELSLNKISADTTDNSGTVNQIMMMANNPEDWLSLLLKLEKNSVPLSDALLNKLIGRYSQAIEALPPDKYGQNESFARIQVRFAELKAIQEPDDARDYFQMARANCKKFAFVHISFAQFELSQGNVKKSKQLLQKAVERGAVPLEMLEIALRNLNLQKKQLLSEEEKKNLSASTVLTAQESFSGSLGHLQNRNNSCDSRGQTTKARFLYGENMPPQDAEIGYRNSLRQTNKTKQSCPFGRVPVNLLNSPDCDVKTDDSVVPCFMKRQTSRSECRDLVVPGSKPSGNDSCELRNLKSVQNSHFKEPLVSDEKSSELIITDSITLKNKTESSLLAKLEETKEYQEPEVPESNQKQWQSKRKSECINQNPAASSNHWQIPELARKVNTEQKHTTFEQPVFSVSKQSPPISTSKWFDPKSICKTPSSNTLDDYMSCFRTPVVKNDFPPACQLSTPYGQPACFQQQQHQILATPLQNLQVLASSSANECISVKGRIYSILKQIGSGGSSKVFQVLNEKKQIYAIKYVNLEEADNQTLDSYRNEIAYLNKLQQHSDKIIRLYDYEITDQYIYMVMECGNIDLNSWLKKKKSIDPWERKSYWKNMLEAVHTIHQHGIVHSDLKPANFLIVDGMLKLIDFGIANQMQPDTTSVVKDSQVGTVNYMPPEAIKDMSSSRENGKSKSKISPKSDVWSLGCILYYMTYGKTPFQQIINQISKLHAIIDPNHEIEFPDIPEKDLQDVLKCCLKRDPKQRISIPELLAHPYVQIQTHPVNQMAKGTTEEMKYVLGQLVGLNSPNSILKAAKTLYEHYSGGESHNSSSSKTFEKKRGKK
Protocol: Prolonged TTK target occupancy was also measured in tumors derived from MDA-MB-231 xenograft-bearing mice treated with intermittent i.v. dosing regimen of compound of formula (I). […]

other kinases = test: kinase specificity, other kinases versus TTK; format: biochemical
BR1282 TNBC PDX tumor [6] = test: second PDX combination study (compound of formula (I) first), BR1282
Protocol: In a second PDX study, the same model was used as for the first study (TNBC BR1282 PDX model), but this time compound of formula (I) (8 mg/kg, i.v., qw, 5 mL/kg) was administered first and carboplatin (60 mg/kg, i.v., qw, 6 mL/kg) second using a 4 h gap between both administrations and compound of formula (I) was provided qw. Consequently, the mice received both compounds on the same day (4 h gap).
as §3, §4, §5

T1 sequence (P53350 whole entry): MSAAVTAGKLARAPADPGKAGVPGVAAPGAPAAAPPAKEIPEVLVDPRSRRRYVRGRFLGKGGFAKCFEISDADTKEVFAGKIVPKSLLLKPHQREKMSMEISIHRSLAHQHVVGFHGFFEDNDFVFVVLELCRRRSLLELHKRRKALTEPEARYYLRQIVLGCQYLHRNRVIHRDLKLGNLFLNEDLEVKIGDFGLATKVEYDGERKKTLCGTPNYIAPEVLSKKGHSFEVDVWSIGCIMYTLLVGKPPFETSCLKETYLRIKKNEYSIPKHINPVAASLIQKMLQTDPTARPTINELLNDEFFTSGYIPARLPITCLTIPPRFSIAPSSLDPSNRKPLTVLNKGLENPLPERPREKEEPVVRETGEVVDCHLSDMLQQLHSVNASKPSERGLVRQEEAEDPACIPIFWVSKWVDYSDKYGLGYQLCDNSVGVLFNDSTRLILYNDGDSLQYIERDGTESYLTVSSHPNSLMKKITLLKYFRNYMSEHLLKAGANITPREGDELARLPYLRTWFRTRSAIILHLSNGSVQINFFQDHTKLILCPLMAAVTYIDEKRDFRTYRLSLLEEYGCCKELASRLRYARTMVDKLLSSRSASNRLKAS

Compound: COc1cc(N2CCNCC2)ccc1Nc1ncc2c(n1)-n1ccc(C(=O)Nc3c(C)cccc3C)c1CC2 [Compound of formula (I)]
- activity against patient-derived tumor xenografts [1]: significant activity
- target-residency on PLK1 (biotinylated PLK1): a few minutes
- ΔT/C (SKOV-3 s.c. xenografts; monotherapy Formula (I) 7 mg/kg iv qw): 0.69
- ΔT/C (SKOV-3 s.c. xenografts; monotherapy: Formula (I) 7 mg/kg iv 2qw, Carboplatin 60 mg/kg iv qw): 0.64
- GI50 [2]: 35 nM
- Efficacy: ΔT/C Day 0 up to Day 31 (BR1282 TNBC PDX tumor [3]; based on mean rate of growth (k), formula (I) 7 mg/kg 2qw i.v., carboplatin 60 mg/kg qw i.v., carboplatin first): 0.41***
- Mean difference of mean rate of growth (k), Vehicle vs. treatment (BR1282 TNBC PDX tumor [3]; comparator Vehicle, day 0 to latest day 31): 0.084
- Efficacy: ΔT/C Day 10 (BR1282 TNBC PDX tumor [3]; mean change in tumor volume, formula (I) 7 mg/kg 2qw i.v., carboplatin 60 mg/kg qw i.v., carboplatin first): 0.58
- Tolerability (Day 10) ΔBW (%) (BR1282 TNBC PDX tumor [3]; mouse, in vivo): 0.5 ± 1.6%
- Tolerability (Day 10) ΔI/C (BR1282 TNBC PDX tumor [3]; mouse, in vivo): 0.96
- target-residency on TTK [4]: > 12 h
- highest tolerated doses of compound of formula (I) in combination with carboplatin ([5]; 2qw i.v., 4 or 24 hours after carboplatin 60 mg/kg qw i.v.): 6 to 7 mg/kg
- tolerability when compound of formula (I) applied first ([5]; 6-8 mg/kg, 24 h gap to carboplatin or 2qw schedule): not tolerated
- tolerated dose of compound of formula (I) when applied before carboplatin ([5]; weekly, carboplatin 60 mg/kg i.v. qw 4 h later): 8 mg/kg
- time TTK completely occupied after last dose (tumor-derived TTK; i.v. twice-weekly, last MTD dose): at least 72 h
- time tumor-derived TTK fully drug-occupied after last administration (tumor-derived TTK; i.v. weekly MTD dosing, repeat experiment): up to 6 days
- other kinase IC50s higher than those for TTK (other kinases): at least 10 fold
- Efficacy: ΔT/C Day 0 up to Day 17 (BR1282 TNBC PDX tumor [6]; based on mean rate of growth (k), formula (I) 8 mg/kg qw first, carboplatin 60 mg/kg qw 4 h later): 0.70
- k means, Mean difference, Vehicle vs. treatment (BR1282 TNBC PDX tumor [6]; comparator Vehicle): 0.045
- Δ tumor volume on day 14, Mean difference, Vehicle vs. treatment (BR1282 TNBC PDX tumor [6]; comparator Vehicle): 422.3
- Efficacy: ΔT/C Day 14 (BR1282 TNBC PDX tumor [6]; mean change in tumor volume, formula (I) 8 mg/kg qw i.v. first, carboplatin 60 mg/kg qw i.v. 4 h later): 0.60
- Tolerability (Day 14) ΔBW (%) (BR1282 TNBC PDX tumor [6]; mouse, in vivo): 2.7 ± 2.1%
- Tolerability (Day 14) ΔT/C (BR1282 TNBC PDX tumor [6]; mouse, in vivo): 1.00
